Assay results as given in BindingDB's records for doi:10.1021/bi4011286 (University of Michigan, 2013).
pIC50: −log10 of the molar value.

Key:
[1] = target: T1, DNA primase (Bacillus anthracis, UniProt A0A6L8PXB3); assay: Quatitative Inhibition Analysis Assay; settings: pH 8.8
T1 sequence (A0A6L8PXB3 whole entry): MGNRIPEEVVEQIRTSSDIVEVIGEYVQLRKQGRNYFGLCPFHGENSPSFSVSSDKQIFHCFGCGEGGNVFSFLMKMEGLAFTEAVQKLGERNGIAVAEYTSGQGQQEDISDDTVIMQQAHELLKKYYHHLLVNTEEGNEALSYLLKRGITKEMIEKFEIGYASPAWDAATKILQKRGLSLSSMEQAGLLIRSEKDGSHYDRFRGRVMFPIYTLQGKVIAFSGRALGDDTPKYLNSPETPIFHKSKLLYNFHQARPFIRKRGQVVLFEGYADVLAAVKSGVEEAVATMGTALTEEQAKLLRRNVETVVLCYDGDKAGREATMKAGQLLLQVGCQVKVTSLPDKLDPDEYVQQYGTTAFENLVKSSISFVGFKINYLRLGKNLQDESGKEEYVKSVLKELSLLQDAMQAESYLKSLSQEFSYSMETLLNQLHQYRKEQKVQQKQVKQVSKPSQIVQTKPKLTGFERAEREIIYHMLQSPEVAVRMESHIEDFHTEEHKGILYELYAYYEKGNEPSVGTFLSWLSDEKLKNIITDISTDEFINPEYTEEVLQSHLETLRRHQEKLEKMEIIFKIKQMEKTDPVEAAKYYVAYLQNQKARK
Description: (§1) The reaction mixture contained DNA (1.25 uM or as specified), NTP (110 uM or as specified), 50 mM NaCl, 150 mM potassium glutamate, buffer [20 mM CAPS (pH 8.8) or as specified], and divalent metals (2 mM Mn2+ and 1 mM Mg2+). The assay was performed in 96-well plates with 4 uM Ba DnaG.

[2] = target: T2, DNA primase (Mycobacterium tuberculosis (strain CDC 1551 / Oshkosh), UniProt P9WNW0); assay: Quatitative Inhibition Analysis Assay; settings: pH 8.8
T2 sequence (P9WNW0 whole entry): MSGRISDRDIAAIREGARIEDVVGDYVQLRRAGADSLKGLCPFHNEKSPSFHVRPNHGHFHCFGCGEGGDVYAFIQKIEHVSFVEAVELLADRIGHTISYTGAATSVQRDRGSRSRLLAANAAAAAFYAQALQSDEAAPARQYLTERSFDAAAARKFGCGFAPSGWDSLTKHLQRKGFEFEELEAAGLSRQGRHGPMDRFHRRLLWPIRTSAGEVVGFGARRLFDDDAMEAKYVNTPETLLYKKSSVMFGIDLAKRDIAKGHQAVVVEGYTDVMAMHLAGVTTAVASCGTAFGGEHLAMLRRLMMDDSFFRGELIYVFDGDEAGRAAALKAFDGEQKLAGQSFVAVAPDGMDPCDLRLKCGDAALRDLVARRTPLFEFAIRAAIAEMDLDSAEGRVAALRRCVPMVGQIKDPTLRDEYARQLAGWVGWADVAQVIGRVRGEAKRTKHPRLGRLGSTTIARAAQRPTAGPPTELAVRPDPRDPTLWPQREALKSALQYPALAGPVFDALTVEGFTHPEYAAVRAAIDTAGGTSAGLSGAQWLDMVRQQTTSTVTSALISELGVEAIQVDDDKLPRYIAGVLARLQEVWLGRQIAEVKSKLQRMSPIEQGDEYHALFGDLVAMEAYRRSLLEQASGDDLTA
Description: as §1

| SMILES | pIC50 [1] | pIC50 [2] |
| --- | --- | --- |
| COc1cccc2c1C(=O)c1c(O)c3c(c(O)c1C2=O)C[C@@](O)(C(=O)CO)C[C@@H]3O[C@H]1C[C@H](N)[C@H](O)[C@H](C)O1 [Adriamycin] | 5.36 | 5.03 |
| CCN(CC)CCOc1ccc2c(c1)C(=O)c1cc(OCCN(CC)CC)ccc1-2 [Amixin IC] | 5.15 | 4.16 |
| O=c1oc2c(O)c(O)cc3c(=O)oc4c(O)c(O)cc1c4c23 [Elagic Acid] | < 4.00 |  |
| C[C@H]1COc2c(N3CCN(C)CC3)c(F)cc3c(=O)c(C(=O)O)cn1c23 [Levaquin] | 4.12 |  |
| Cc1ccc(C(=O)Nc2ccc(S(=O)(=O)O)c3cc(S(=O)(=O)O)cc(S(=O)(=O)O)c23)cc1NC(=O)c1cccc(NC(=O)Nc2cccc(C(=O)Nc3cc(C(=O)Nc4ccc(S(=O)(=O)O)c5cc(S(=O)(=O)O)cc(S(=O)(=O)O)c45)ccc3C)c2)c1 [Suramin hexasodium] | 5.09 |  |
